Test results as given in patent publication EP2975030B1, “DIHYDROPYRIDAZINE-3,5-DIONE DERIVATIVE” (Chugai Seiyaku Kabushiki Kaisha, priority 2013, dated 2014).

Test system: rat small-intestinal brush border membrane vesicles
Assay: Inhibitory effect on 33PO4 uptake into rat small-intestinal brush border membrane vesicles (rapid filtration method)
Format: biochemical, Wistar female rat
Conditions: 1 µM test compound; 33PO4 uptake into rat small-intestinal BBMVs, 60 seconds
Procedure: The ^33PO4 transport activity of the small-intestinal BBMVs was determined by the rapid filtration method. […] Then, ice-cold buffer C (110 mM NaCl, 1 mM KH2PO4, and 10 mM HEPES (pH 7.5)) was added to each reaction mixture, which was immediately suction-filtered through a Millipore filter. The filter was washed with buffer C, and each sample was then dissolved in a liquid scintillator. The amount of ^33PO4 uptake into BBMVs was measured using a liquid scintillation counter. […]

Structure (SMILES)	Rate of uptake inhibition (%) (1 µM)
C[C@]12CCCN1N(Cc1c(F)cc(CCCCCCCOC[C@H](O)[C@@H](O)CO)cc1F)C(=O)C(C(=O)Nc1ccc(C(F)(F)F)cc1-c1ccc(C(F)(F)F)nc1)=C2O [Example 125, (4aR)-1-[[2,6-Difluoro-4-[7-[(2S,3S)-2,3,4-trihydroxybutoxy]heptyl]phenyl]methyl]-4-hydroxy-4a-methvl-2-oxo-N-[4-(trifluoromethyl)-2-[6-(trifluoromethyl)pyridin-3-yl]phenyl]-6,7-dihydro-5H-pyrrolo[1,2-b]pyridazine-3-carboxamide]	76
C#Cc1ccc(CN2C(=O)C(C(=O)Nc3ccc(C(F)(F)F)cc3-c3cc(C(F)(F)F)ncn3)=C(O)[C@@]3(C)CCCN23)c(F)c1F [Example 126, (4aR)-1-[(4-Ethynyl-2,3-difluorophenyl)methyl]-4-hydroxy-4a-methyl-2-oxo-N-[4-(trifluoromethyl)-2-[6-(trifluoromethyl)pyrimidin-4-yl]phenyl]-6,7-dihydro-5H-pyrrolo[1.2-b]pyridazine-3-carboxamide]	71
COc1cccc(-c2cc(C(F)(F)F)ccc2NC(=O)C2=C(O)[C@@]3(C)CCCN3N(Cc3ccc(C#CCOCCCO)c(F)c3F)C2=O)c1OC [Example 127]	95
C[C@]12CCCN1N(Cc1ccc(C#CCOCCCCO)c(F)c1F)C(=O)C(C(=O)Nc1ccc(C(F)(F)F)cc1-c1ccc(C(F)(F)F)nc1)=C2O [Example 128]	72
C[C@]12CCCN1N(Cc1c(F)cc(C#CC3(O)CCCC3)cc1F)C(=O)C(C(=O)Nc1ccc(C(F)(F)F)cc1-c1ccc(C(F)(F)F)nc1)=C2O [Example 130]	72
C[C@]12CCCN1N(Cc1ccc(C#CCN3CCCC3=O)c(F)c1F)C(=O)C(C(=O)Nc1ccc(Br)c(F)c1)=C2O [Example 131]	87
C[C@]12CCCN1N(Cc1c(F)cc(C#CCN3CCOCC3)cc1F)C(=O)C(C(=O)Nc1ccc(C(F)(F)F)cc1-c1ccc(C(F)(F)F)nc1)=C2O [Example 132]	71
COc1cccc(-c2cc(C(F)(F)F)ccc2NC(=O)C2=C(O)[C@@]3(C)CCCN3N(Cc3ccc(C#CCCCCO)c(F)c3F)C2=O)c1OC [Example 135]	90
COc1cccc(-c2cc(C(F)(F)F)ccc2NC(=O)C2=C(O)[C@@]3(C)CCCN3N(Cc3ccc(C#CCOCCOCCOCCO)c(F)c3F)C2=O)c1OC [Example 136]	80
COc1cccc(-c2cc(C(F)(F)F)ccc2NC(=O)C2=C(O)[C@@]3(C)CCCN3N(Cc3ccc(C#CCOCCO)c(F)c3F)C2=O)c1OC [Example 137]	92
COc1cccc(-c2cc(C(F)(F)F)ccc2NC(=O)C2=C(O)[C@@]3(C)CCCN3N(Cc3ccc(C#CCCCO)c(F)c3F)C2=O)c1OC [Example 138]	93
COc1cccc(-c2cc(C(F)(F)F)ccc2NC(=O)C2=C(O)[C@@]3(C)CCCN3N(Cc3ccc(C#CCOCCOCCO)c(F)c3F)C2=O)c1OC [Example 139]	88
C[C@]12CCCN1N(Cc1ccc(CCCOCCCO)c(F)c1F)C(=O)C(C(=O)Nc1ccc(C(F)(F)F)cc1-c1ccc(C(F)(F)F)nc1)=C2O [Example 141]	83
COc1cccc(-c2cc(C(F)(F)F)ccc2NC(=O)C2=C(O)[C@@]3(C)CCCN3N(Cc3ccc(CCCOCCOCCOCCO)c(F)c3F)C2=O)c1OC [Example 142]	76
C[C@]12CCCN1N(Cc1c(F)cc(C#CCCCCOC[C@H](O)CO)cc1F)C(=O)C(C(=O)Nc1ccc(C(F)(F)F)cc1-c1ccc(C(F)(F)F)nc1)=C2O.[Na+] [Example 143]	71
C[C@]12CCCN1N(Cc1c(F)cc(C#CCCOC[C@H](O)CO)cc1F)C(=O)C(C(=O)Nc1ccc(C(F)(F)F)cc1-c1ccc(C(F)(F)F)nc1)=C2O [Example 145]	78
C[C@]12CCCN1N(Cc1c(Cl)cc(OCCN3CCOCC3)cc1Cl)C(=O)C(C(=O)Nc1cnc(C(F)(F)F)nc1-c1ccc(C(F)(F)F)nc1)=C2O.Cl [Example 146, (4aR)-1-[[2,6-Dichloro-4-(2-morpholin-4-ylethoxy)phenyl]methyl]-4-hydroxy-4a-methyl-2-oxo-N-[2-(trifluoromethyl)-4-[6-(trifluoromethyl)pyridin-3-yl]pyrimidin-5-yl]-6,7-dihydro-5H-pyrrolo[1,2-b]pyridazine-3-carboxamide hydrochloride]	71

Structure (SMILES)	Rate of uptake inhibition (%) (1 µM)
C[C@]12CCCN1N(Cc1c(Cl)cc(OCCN3CCOCC3)cc1Cl)C(=O)C(C(=O)Nc1ccc(C(F)(F)F)nc1-c1ccc(C(F)(F)F)nc1)=C2O.Cl [Example 148, (4aR)-1-[[2,6-Dichloro-4-(2-morpholin-4-ylethoxy)phenyl]methyl]-4-hydroxy-4a-methyl-2-oxo-N-[6-(trifluoromethyl)-2-[6-(trifluoromethyl)pyridin-3-yl]pyridin-3-yl]-6,7-dihydro-5H-pyrrolo[1,2-b]pyridazine-3-carboxamide hydrochloride]	75
C[C@]12CCCN1N(Cc1ccc(OCCN3CCOCC3)c(Cl)c1)C(=O)C(C(=O)Nc1ccc(C(F)(F)F)cc1-c1ccc(C(F)(F)F)nc1)=C2O [Example 149, (4aR)-1-[[3-Chloro-4-(2-morpholin-4-ylethoxy)phenyl]methyl]-4-hydroxy-4a-methyl-2-oxo-N-[4-(trifluoromethyl)-2-[6-(trifluoromethyl)pyridin-3-yl]phenyl]-6,7-dihydro-5H-pyrrolo[1,2-b]pyridazine-3-carboxamide]	80
COC(=O)COc1ccc(CN2C(=O)C(C(=O)Nc3ccc(C(F)(F)F)cc3-c3ccc(C(F)(F)F)nc3)=C(O)[C@@]3(C)CCCN23)c(F)c1F [Example 150, Methyl 2-[4-[[(4aR)-4-Hydroxy-4a-methyl-2-oxo-3-[[4-(trifluoromethyl)-2-[6-(trifluoromethyl)pyridin-3-yl]phenyl]carbamoyl]-6,7-dihydro-5H-pyrrolo[1,2-b]pyridazin-1-yl]methyl]-2,3-difluorophenoxy] acetate]	87
COc1cccc(-c2cc(C(F)(F)F)ccc2NC(=O)C2=C(O)[C@@]3(C)CCCN3N(Cc3ccc(OCc4ccncc4)c(F)c3F)C2=O)c1OC [Example 151, (4aR)-1-[[2,3-Difluoro-4-(pyridin-4-ylmethoxy)phenyl]methyl]-N-[2-(2,3-dimethoxyphenyl)-4-(trifluoromethyl)phenyl]-4-hydroxy-4a-methyl-2-oxo-6,7-dihydro-5H-pyrrolo[1,2-b]pyridazine-3-carboxamide]	92
C[C@]12CCCN1N(Cc1c(F)cc(OCCCCCOC[C@@H](O)CO)cc1F)C(=O)C(C(=O)Nc1ccc(C(F)(F)F)cc1-c1ccc(C(F)(F)F)nc1)=C2O [Example 153]	73
C[C@]12CCCN1N(Cc1c(F)cc(OCCCCCCOC[C@@H](O)CO)cc1F)C(=O)C(C(=O)Nc1ccc(C(F)(F)F)cc1-c1ccc(C(F)(F)F)nc1)=C2O [Example 154]	73
C[C@]12CCCN1N(Cc1c(F)cc(OCCCCCCOC[C@H](O)CO)cc1F)C(=O)C(C(=O)Nc1ccc(C(F)(F)F)cc1-c1ccc(C(F)(F)F)nc1)=C2O [Example 155]	77
COc1cccc(-c2cc(C(F)(F)F)ccc2NC(=O)C2=C(O)[C@@]3(C)CCCN3N(Cc3ccc(OC4CCOCC4)c(F)c3F)C2=O)c1OC [Example 158]	84
COc1cccc(-c2cc(C(F)(F)F)ccc2NC(=O)C2=C(O)[C@@]3(C)CCCN3N(Cc3ccc(OC[C@H]4CCCO4)c(F)c3F)C2=O)c1OC [Example 159]	89
C[C@]12CCCN1N(Cc1ccc(OC[C@H]3CCCO3)c(F)c1F)C(=O)C(C(=O)Nc1ccc(C(F)(F)F)cc1-c1ccc(C(F)(F)F)nc1)=C2O [Example 160]	77
C[C@]12CCCN1N(Cc1ccc(OCCCCCO)c(F)c1F)C(=O)C(C(=O)Nc1ccc(C(F)(F)F)cc1-c1cc(C(F)(F)F)ncn1)=C2O [Example 162]	73
C[C@]12CCCN1N(Cc1ccc(SCCN3CCOCC3)c(F)c1F)C(=O)C(C(=O)Nc1ccc(C(F)(F)F)cc1-c1ccc(C(F)(F)F)nc1)=C2O.Cl [Example 163, (4aR)-1-[[2,3-Difluoro-4-(2-morpholin-4-ylethylsulfanyl)phenyl]methyl]-4-hydroxy-4a-methyl-2-oxo-N-(4-(trifluoromethyl)-2-[6-(trifluoromethyl)pyridin-3-yl]phenyl)-6,7-dihydro-5H-pyrrolo[1,2-b]pyridazine-3-carboxamide hydrochloride]	79
COC(=O)c1cc(F)c(CN2C(=O)C(C(=O)Nc3ccc(C(F)(F)F)cc3-c3ccc(C(F)(F)F)nc3)=C(O)[C@@]3(C)CCCN23)c(F)c1 [Example 165, Methyl 4-[[(4aR)-4-Hydroxy-4a-methyl-2-oxo-3-[[4-(trifluoromethyl)-2-[6-(trifluoromethyl)pyridin-3-yl]phenyl]carbamoyl]-6,7-dihydro-5H-pyrrolo[1,2-b]pyridazin-1-yl]methyl]-3,5-difluorobenzoate]	75
C[C@]12CCCN1N(Cc1ccc(Br)cc1F)C(=O)C(C(=O)Nc1cc(F)c(Br)c(F)c1)=C2O [Example 166, (4aR)-N-(4-Bromo-3,5-difluorophenyl)-1-[(4-bromo-2-fluorophenyl)methyl]-4-hydroxy-4a-methyl-2-oxo-6,7-dihydro-5H-pyrrolo[1,2-b]pyridazine-3-carboxamide]	73
C[C@]12CCCN1N(Cc1cccc(OC(F)F)c1)C(=O)C(C(=O)Nc1ccc(C(F)(F)F)cc1-c1ccc(C(F)(F)F)nc1)=C2O [Example 167]	73
C[C@]12CCCN1N(Cc1ccccc1Cl)C(=O)C(C(=O)Nc1ccc(C(F)(F)F)cc1-c1ccc(C(F)(F)F)nc1)=C2O [Example 168]	72
